Laboratory results as given in patent publication US20240270762A1, “PENICILLIN-BINDING PROTEIN INHIBITORS” (priority 2021, published 2024).
Values after ≈ are worked out from the molar mass of the structure shown.

Key:
[1] = biological target: T1, PBP3 from Pseudomonas aeruginosa (PAO1) (Pseudomonas aeruginosa, UniProt G3XD46); experiment: Bocillin-FL fluorescence polarization competition binding, P. aeruginosa PBP3; conditions: Binding affinity to P. aeruginosa PBP3; fluorescence polarization competition binding assay using Bocillin-FL; read-out: P. aeruginosa PBP3 Potency
T1 construct: made in house
Outline: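 Purified PBPs pre-incubated with inhibitor (E. coli PBP3 1.5 μM, 30 min; P. aeruginosa PBP3 0.75 μM, A. baumannii PBP1a 1 μM and PBP3 0.2 μM, 15 min), then Bocillin-FL 0.1 μM (0.05 μM for PBP1a) added; FP read up to 60 min. EC50 = concentration halving bound Bocillin-FL.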

E. coli AG100 = experiment: microbe, parasite or virus in culture; format: cell-based; conditions: Escherichia coli, AG100, read-out: MIC E. coli AG100
K. pneumoniae 848844 = experiment: microbe, parasite or virus in culture; format: cell-based; conditions: Klebsiella pneumoniae, 848844, read-out: MIC K. pneumoniae 848844
P. aeruginosa ATCC 27853 = experiment: microbe, parasite or virus in culture; format: cell-based; conditions: Pseudomonas aeruginosa, ATCC27853, read-out: MIC P. aeruginosa ATCC 27853
[2] = tested on: P. aeruginosa (ΔmexAB-oprM); experiment: Broth microdilution MIC in CAMHB; format: cell-based; conditions: Pseudomonas aeruginosa; read-out: MIC P. aeruginosa ΔmexAB-oprM
N. gonorrhoeae FA1090 = experiment: Liquid broth MIC in Fastidious broth; conditions: Neisseria gonorrhoeae, FA1090, read-out: Minimum Inhibitory Concentration (MIC), N. gonorrhoeae FA 1090
Method: Additional antibacterial testing of the series was performed in 8 reference strains of N. gonorrhoeae (ATCC 49226, FA1090, MS 11, WHO G, WHO L, WHO M, WHO K, WHO X, WHO Z, WHO Q, CDC-0197). ATCC 49226, FA1090, MS11, WHO G, WHO L, and WHO M produce wild type or wild-type like PBP2. WHO K, WHO X, WHO Z, WHO Q, and CDC-0197 produce mosaic PBP2. Liquid broth-based assays were used for antibacterial testing of PBP inhibitors in Neisseria gonorrhoeae. Briefly, cryo-preserved bacterial cultures of clinical strains were streaked for isolation on Chocolate Agar (72 g/L (2×) GC Agar Base (BD #228950) and 2% (2×) Hemoglobin was autoclaved at 121° C. for 20 minutes to sterilize. Once cooled to ˜50° C. the 2×GC Agar Base and 2× Hemoglobin solutions are combined and 1% IsoVitaleX Enrichment (BD #211876) was added to the solution). Strains were incubated at 36° C. and 5% CO2 to allow growth of colonies, 24 hours before inoculum preparation. 2-fold serial dilutions of test compounds were conducted in a 96 well plate with a final volume of 75 μL per well at 2-fold the final desired concentration in Fastidious broth (Remel #R07664). For preparation of assay inoculum, a direct suspension was prepared by aseptically swabbing 10-15 colonies from agar plates into culture tubes containing 2 mL of fresh sterile saline. After the dilution plates were set up, direct suspensions were then diluted in a cuvette containing sterile saline and the optical density was measured at 600 nm. Inocula were diluted such that 75 μL of this culture in Fastidious broth results in a starting bacterial concentration of 5×10^5 CFU/mL when added to the dilution plates. The plates were incubated for ˜24 hours at 36° C. and 5% CO2.

N. gonorrhoeae WHO G = experiment: Liquid broth MIC in Fastidious broth; conditions: Neisseria gonorrhoeae, read-out: Minimum Inhibitory Concentration (MIC), N. gonorrhoeae WHO G
N. gonorrhoeae WHO X = experiment: Liquid broth MIC in Fastidious broth; conditions: Neisseria gonorrhoeae, read-out: Minimum Inhibitory Concentration (MIC), N. gonorrhoeae WHO X
Method: Liquid broth-based assays were used for antibacterial testing of PBP inhibitors in Neisseria gonorrhoeae. Briefly, cryo-preserved bacterial cultures of clinical strains were streaked for isolation on Chocolate Agar (72 g/L (2×) GC Agar Base (BD #228950) and 2% (2×) Hemoglobin was autoclaved at 121° C. for 20 minutes to sterilize. Once cooled to ˜50° C. the 2×GC Agar Base and 2× Hemoglobin solutions are combined and 1% IsoVitaleX Enrichment (BD #211876) was added to the solution). Strains were incubated at 36° C. and 5% CO2 to allow growth of colonies, 24 hours before inoculum preparation. 2-fold serial dilutions of test compounds were conducted in a 96 well plate with a final volume of 75 μL per well at 2-fold the final desired concentration in Fastidious broth (Remel #R07664). For preparation of assay inoculum, a direct suspension was prepared by aseptically swabbing 10-15 colonies from agar plates into culture tubes containing 2 mL of fresh sterile saline. After the dilution plates were set up, direct suspensions were then diluted in a cuvette containing sterile saline and the optical density was measured at 600 nm. Inocula were diluted such that 75 μL of this culture in Fastidious broth results in a starting bacterial concentration of 5×10^5 CFU/mL when added to the dilution plates. The plates were incubated for ˜24 hours at 36° C. and 5% CO2.

T1 sequence (G3XD46 whole entry): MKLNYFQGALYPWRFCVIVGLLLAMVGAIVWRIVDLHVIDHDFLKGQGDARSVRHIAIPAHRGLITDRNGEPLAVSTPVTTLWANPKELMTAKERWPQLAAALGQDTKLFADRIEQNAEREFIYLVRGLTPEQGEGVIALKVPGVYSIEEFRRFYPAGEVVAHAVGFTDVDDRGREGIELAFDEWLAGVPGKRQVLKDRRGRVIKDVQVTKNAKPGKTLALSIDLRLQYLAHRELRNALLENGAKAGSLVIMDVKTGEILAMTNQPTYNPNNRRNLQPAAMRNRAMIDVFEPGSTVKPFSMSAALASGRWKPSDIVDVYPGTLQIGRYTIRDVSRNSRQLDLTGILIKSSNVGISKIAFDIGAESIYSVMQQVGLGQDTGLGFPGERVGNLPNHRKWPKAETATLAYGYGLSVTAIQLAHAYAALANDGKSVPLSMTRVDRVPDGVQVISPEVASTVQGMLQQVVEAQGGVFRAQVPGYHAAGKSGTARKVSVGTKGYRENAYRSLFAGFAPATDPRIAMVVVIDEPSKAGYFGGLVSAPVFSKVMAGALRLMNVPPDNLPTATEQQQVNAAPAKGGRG

O=C(O)c1cccc2c1OB(O)[C@@H](NC(=O)C(NC(=O)C1CC1)c1ccc(P(=O)(O)O)cc1)C2 (stereo partly drawn) [Example 30, (3R)-3-(2-(cyclopropanecarboxamido)-2-(4-phosphonophenyl)acetamido)-2-hydroxy-3,4-dihydro-2H-benzo[e][1,2]oxaborinine-8-carboxylic acid] showed an IC50 [1] of 50 to 250 µM, an MIC (E. coli AG100) greater than 128 µg/mL and an MIC (K. pneumoniae 848844) greater than 128 µg/mL. For the same compound, the MIC (P. aeruginosa ATCC 27853) was greater than 128 µg/mL, the MIC [2] was greater than 128 µg/mL and the MIC (N. gonorrhoeae FA1090) was 4 to 8 µg/mL (≈ 8.19 to 16.4 µM). It also gave an MIC (N. gonorrhoeae WHO G) of 4 to 8 µg/mL (≈ 8.19 to 16.4 µM) and an MIC (N. gonorrhoeae WHO X) of 16 to 32 µg/mL (≈ 32.8 to 65.5 µM).

Nc1nc(C(=O)N[C@@H](C(=O)N[C@H]2Cc3cccc(C(=O)O)c3OB2O)c2ccc(P(=O)(O)O)cc2)cs1 (racemic) [Example 51, (R)-3-((S)-2-(2-aminothiazole-4-carboxamido)-2-(4-phosphonophenyl)acetamido)-2-hydroxy-3,4-dihydro-2H-benzo[e][1,2]oxaborinine-8-carboxylic acid and (R)-3-((R)-2-(2-aminothiazole-4-carboxamido)-2-(4-phosphonophenyl)acetamido)-2-hydroxy-3,4-dihydro-2H-benzo[e][1,2]oxaborinine-8-carboxylic acid] showed an IC50 [1] of less than 10 µM, an MIC (E. coli AG100) greater than 128 µg/mL and an MIC (K. pneumoniae 848844) greater than 128 µg/mL. The MIC (P. aeruginosa ATCC 27853) was greater than 128 µg/mL, the MIC [2] was 32 to 64 µg/mL (≈ 58.6 to 117 µM) and the MIC (N. gonorrhoeae FA1090) was less than 1 µg/mL. For the same compound, the MIC (N. gonorrhoeae WHO G) was less than 1 µg/mL and the MIC (N. gonorrhoeae WHO X) was 4 to 8 µg/mL (≈ 7.32 to 14.6 µM).

CS(=O)(=O)N1CCC[C@H]1C(=O)N[C@H](C(=O)N[C@H]1Cc2cccc(C(=O)O)c2OB1O)c1ccc(P(=O)(O)O)cc1 [Example 43, (R)-2-hydroxy-3-((S)-2-((S)-1-(methylsulfonyl)pyrrolidine-2-carboxamido)-2-(4-phosphonophenyl)acetamido)-3,4-dihydro-2H-benzo[e][1,2]oxaborinine-8-carboxylic acid] was tested, and the IC50 [1] was 50 to 250 µM, the MIC (E. coli AG100) was greater than 128 µg/mL and the MIC (K. pneumoniae 848844) was greater than 128 µg/mL. The MIC (P. aeruginosa ATCC 27853) was greater than 128 µg/mL, the MIC [2] was greater than 128 µg/mL and the MIC (N. gonorrhoeae FA1090) was 1 to 2 µg/mL (≈ 1.68 to 3.36 µM). It also gave an MIC (N. gonorrhoeae WHO G) of 4 to 8 µg/mL (≈ 6.72 to 13.4 µM) and an MIC (N. gonorrhoeae WHO X) of 16 to 32 µg/mL (≈ 26.9 to 53.8 µM).

For O=C(NC(C(=O)N[C@H]1Cc2cccc(C(=O)O)c2OB1O)c1ccc(P(=O)(O)O)cc1)c1ccc(Cl)cn1 (stereo partly drawn) [Example 184, (3R)-3-(2-(5-chloropicolinamido)-2-(4-phosphonophenyl)acetamido)-2-hydroxy-3,4-dihydro-2H-benzo[e][1,2]oxaborinine-8-carboxylic acid], the IC50 [1] was less than 10 µM, the MIC (E. coli AG100) was greater than 128 µg/mL and the MIC (K. pneumoniae 848844) was greater than 128 µg/mL. It also gave an MIC (P. aeruginosa ATCC 27853) greater than 128 µg/mL, an MIC [2] greater than 128 µg/mL and an MIC (N. gonorrhoeae FA1090) of less than 1 µg/mL. The MIC (N. gonorrhoeae WHO G) was less than 1 µg/mL and the MIC (N. gonorrhoeae WHO X) was 4 to 8 µg/mL (≈ 7.15 to 14.3 µM).

Work on CCN1CCN(C(=O)NC(C(=O)N[C@H]2Cc3cccc(C(=O)O)c3OB2O)c2ccc(S(=O)(=O)O)cc2)C(=O)C1=O (stereo partly drawn) [Example 189, (3R)-3-(2-(4-ethyl-2,3-dioxopiperazine-1-carboxamido)-2-(4-sulfophenyl)acetamido)-2-hydroxy-3,4-dihydro-2H-benzo[e][1,2]oxaborinine-8-carboxylic acid] yielded an IC50 [1] of less than 10 µM, an MIC (E. coli AG100) of 32 to 64 µg/mL (≈ 54.4 to 109 µM) and an MIC (K. pneumoniae 848844) greater than 128 µg/mL. It also gave an MIC (P. aeruginosa ATCC 27853) greater than 128 µg/mL, an MIC [2] of 8 to 16 µg/mL (≈ 13.6 to 27.2 µM) and an MIC (N. gonorrhoeae FA1090) of less than 1 µg/mL. For the same compound, the MIC (N. gonorrhoeae WHO G) was less than 1 µg/mL and the MIC (N. gonorrhoeae WHO X) was 4 to 8 µg/mL (≈ 6.8 to 13.6 µM).

O=C(O)c1cccc2c1OB(O)[C@@H](NC(=O)C(NC(=O)C1CCCCC1)c1ccc(P(=O)(O)O)cc1)C2 (stereo partly drawn) [Example 31, (3R)-3-(2-(cyclohexanecarboxamido)-2-(4-phosphonophenyl)acetamido)-2-hydroxy-3,4-dihydro-2H-benzo[e][1,2]oxaborinine-8-carboxylic acid] showed an IC50 [1] of 10 to 50 µM, an MIC (E. coli AG100) greater than 128 µg/mL and an MIC (K. pneumoniae 848844) greater than 128 µg/mL. For the same compound, the MIC (P. aeruginosa ATCC 27853) was greater than 128 µg/mL, the MIC [2] was greater than 128 µg/mL and the MIC (N. gonorrhoeae FA1090) was 4 to 8 µg/mL (≈ 7.54 to 15.1 µM). The MIC (N. gonorrhoeae WHO G) was 16 to 32 µg/mL (≈ 30.2 to 60.3 µM) and the MIC (N. gonorrhoeae WHO X) was 16 to 32 µg/mL (≈ 30.2 to 60.3 µM).

With NC(=O)c1ccc(C(=O)NC(C(=O)N[C@H]2Cc3cccc(C(=O)O)c3OB2O)c2ccc(P(=O)(O)O)cc2)nc1 (stereo partly drawn) [Example 188, (3R)-3-(2-(5-carbamoylpicolinamido)-2-(4-phosphonophenyl)acetamido)-2-hydroxy-3,4-dihydro-2H-benzo[e][1,2]oxaborinine-8-carboxylic acid] the IC50 [1] was less than 10 µM, the MIC (E. coli AG100) was greater than 128 µg/mL and the MIC (K. pneumoniae 848844) was greater than 128 µg/mL. The MIC (P. aeruginosa ATCC 27853) was greater than 128 µg/mL, the MIC [2] was 32 to 64 µg/mL (≈ 56.3 to 113 µM) and the MIC (N. gonorrhoeae FA1090) was less than 1 µg/mL. For the same compound, the MIC (N. gonorrhoeae WHO G) was less than 1 µg/mL and the MIC (N. gonorrhoeae WHO X) was 4 to 8 µg/mL (≈ 7.04 to 14.1 µM).
